From patent US20170050957A1, “4-AMINO-6-(HETEROCYCLIC)PICOLINATES AND 6-AMINO-2-(HETEROCYCLIC)PYRIMIDINE-4-CARBOXYLATES AND THEIR USE AS HERBICIDES” (Dow AgroSciences LLC, priority 2013, published 2017)
Like-named read-outs stand apart in the source and are kept apart here.

What was measured:
[1] = system: Key Broadleaf Weed and Crop Species; experiment: Post-emergent Test II herbicidal activity (Table 15); format: in vivo; details: post-emergence, 336 h, 14 d; for pest or weed control at 35 g/ha: 35 g ai/ha; for pest or weed control at 70 g/ha: 70 g ai/ha; for pest or weed control at 140 g/ha: 140 g ai/ha
Method in brief: (§1)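 Post-emergence spray; seedlings 7-21 d old, 1st-2nd true leaf; 187 L/ha; serial rates 1×-1/16×; solvent blank controls; subirrigated; visual % injury at 14 d.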

[2] = system: Key Grass and Sedge Weeds as well as Grass Crops; experiment: Post-emergent Test II herbicidal activity (Table 16); format: in vivo; details: post-emergence, 336 h, 14 d; for pest or weed control at 35 g/ha: 35 g ai/ha; for pest or weed control at 70 g/ha: 70 g ai/ha; for pest or weed control at 140 g/ha: 140 g ai/ha
Method in brief: as §1

[3] = Abutilon theophrasti, velvetleaf (Abutilon theophrasti), read-out: Visual Growth Reduction (%) 14 Days After Application, ABUTH
[4] = Amaranthus retroflexus, redroot pigweed (Amaranthus retroflexus), read-out: Visual Growth Reduction (%) 14 Days After Application, AMARE
[5] = Brassica napus, oilseed rape, canola (Brassica napus), read-out: Visual Growth Reduction (%) 14 Days After Application, BRSNN
[6] = Chenopodium album, lambsquarters (Chenopodium album), read-out: Visual Growth Reduction (%) 14 Days After Application, CHEAL
[7] = Euphorbia heterophylla, wild poinsettia (Euphorbia heterophylla), read-out: Visual Growth Reduction (%) 14 Days After Application, EPHHL
[8] = Helianthus annuus, sunflower (Helianthus annuus), read-out: Visual Growth Reduction (%) 14 Days After Application, HELAN
[9] = Cyperus esculentus, yellow nutsedge (Cyperus esculentus), read-out: Visual Growth Reduction (%) 14 Days After Application, CYPES
[10] = Echinochloa crus-galli, barnyardgrass (Echinochloa crus-galli), read-out: Visual Growth Reduction (%) 14 Days After Application, ECHCG
[11] = Oryza sativa, rice (Oryza sativa), read-out: Visual Growth Reduction (%) 14 Days After Application, ORYSA
[12] = Setaria faberi, giant foxtail (Setaria faberi), read-out: Visual Growth Reduction (%) 14 Days After Application, SETFA
[13] = Triticum aestivum, wheat, spring (Triticum aestivum), read-out: Visual Growth Reduction (%) 14 Days After Application, TRZAS
[14] = Zea mays, maize, corn (Zea mays), read-out: Visual Growth Reduction (%) 14 Days After Application, ZEAMX

COC(=O)c1nc(-c2ccc3cc[nH]c3c2)c(C)c(N)c1Cl [Compound 1.28]
pest or weed control at 35 g/ha [1, 3]: 85 to 94%
pest or weed control at 70 g/ha [1, 3]: 85 to 94%
pest or weed control at 140 g/ha [1, 3]: 95 to 100%
pest or weed control at 35 g/ha [1, 4]: 0 to 29%
pest or weed control at 70 g/ha [1, 4]: 0 to 29%
pest or weed control at 140 g/ha [1, 4]: 60 to 74%
pest or weed control at 35 g/ha [1, 5]: 75 to 84%
pest or weed control at 70 g/ha [1, 5]: 85 to 94%
pest or weed control at 140 g/ha [1, 5]: 85 to 94%
pest or weed control at 35 g/ha [1, 6]: 45 to 59%
pest or weed control at 70 g/ha [1, 6]: 60 to 74%
pest or weed control at 140 g/ha [1, 6]: 60 to 74%
pest or weed control at 35 g/ha [1, 7]: 0 to 29%
pest or weed control at 70 g/ha [1, 7]: 0 to 29%
pest or weed control at 140 g/ha [1, 7]: 0 to 29%
pest or weed control at 35 g/ha [1, 8]: 95 to 100%
pest or weed control at 70 g/ha [1, 8]: 95 to 100%
pest or weed control at 140 g/ha [1, 8]: 95 to 100%
pest or weed control at 35 g/ha [2, 9]: 0 to 29%
pest or weed control at 70 g/ha [2, 9]: 0 to 29%
pest or weed control at 140 g/ha [2, 9]: 0 to 29%
pest or weed control at 35 g/ha [2, 10]: 0 to 29%
pest or weed control at 70 g/ha [2, 10]: 0 to 29%
pest or weed control at 140 g/ha [2, 10]: 0 to 29%
pest or weed control at 35 g/ha [2, 11]: 0 to 29%
pest or weed control at 70 g/ha [2, 11]: 0 to 29%
pest or weed control at 140 g/ha [2, 11]: 0 to 29%
pest or weed control at 35 g/ha [2, 12]: 0 to 29%
pest or weed control at 70 g/ha [2, 12]: 0 to 29%
pest or weed control at 140 g/ha [2, 12]: 0 to 29%
pest or weed control at 35 g/ha [2, 13]: 0 to 29%
pest or weed control at 70 g/ha [2, 13]: 30 to 44%
pest or weed control at 140 g/ha [2, 13]: 30 to 44%
pest or weed control at 35 g/ha [2, 14]: 0 to 29%
pest or weed control at 70 g/ha [2, 14]: 0 to 29%
pest or weed control at 140 g/ha [2, 14]: 0 to 29%
melting point: 231 to 234 °C

Cc1c(-c2ccc3cc[nH]c3c2)nc(C(=O)O)c(Cl)c1N [Compound 1.29]
pest or weed control at 35 g/ha [1, 3]: 0 to 29%
pest or weed control at 70 g/ha [1, 3]: 0 to 29%
pest or weed control at 140 g/ha [1, 3]: 0 to 29%
pest or weed control at 35 g/ha [1, 4]: 45 to 59%
pest or weed control at 70 g/ha [1, 4]: 0 to 29%
pest or weed control at 140 g/ha [1, 4]: 0 to 29%
pest or weed control at 35 g/ha [1, 5]: 75 to 84%
pest or weed control at 70 g/ha [1, 5]: 75 to 84%
pest or weed control at 140 g/ha [1, 5]: 85 to 94%
pest or weed control at 35 g/ha [1, 6]: 45 to 59%
pest or weed control at 70 g/ha [1, 6]: 45 to 59%
pest or weed control at 140 g/ha [1, 6]: 75 to 84%
pest or weed control at 35 g/ha [1, 7]: 0 to 29%
pest or weed control at 70 g/ha [1, 7]: 0 to 29%
pest or weed control at 140 g/ha [1, 7]: 0 to 29%
pest or weed control at 35 g/ha [1, 8]: 60 to 74%
pest or weed control at 70 g/ha [1, 8]: 60 to 74%
pest or weed control at 140 g/ha [1, 8]: 75 to 84%
pest or weed control at 35 g/ha [2, 9]: 0 to 29%
pest or weed control at 70 g/ha [2, 9]: 0 to 29%
pest or weed control at 140 g/ha [2, 9]: 30 to 44%
pest or weed control at 35 g/ha [2, 10]: 0 to 29%
pest or weed control at 70 g/ha [2, 10]: 0 to 29%
pest or weed control at 140 g/ha [2, 10]: 0 to 29%
pest or weed control at 35 g/ha [2, 11]: 0 to 29%
pest or weed control at 70 g/ha [2, 11]: 0 to 29%
pest or weed control at 140 g/ha [2, 11]: 0 to 29%
pest or weed control at 35 g/ha [2, 12]: 0 to 29%
pest or weed control at 70 g/ha [2, 12]: 0 to 29%
pest or weed control at 140 g/ha [2, 12]: 0 to 29%
pest or weed control at 35 g/ha [2, 13]: 0 to 29%
pest or weed control at 70 g/ha [2, 13]: 0 to 29%
pest or weed control at 140 g/ha [2, 13]: 0 to 29%
pest or weed control at 35 g/ha [2, 14]: 0 to 29%
pest or weed control at 70 g/ha [2, 14]: 0 to 29%
pest or weed control at 140 g/ha [2, 14]: 0 to 29%
melting point: 168 to 175 °C
